Earlier results, collected in patent US20180271812A1, “CALCIUM BASED CLINICAL MATERIAL WITH ANTIMICROBIAL PROPERTIES AND METHOD OF FORMING FOR PREVENTION OR TREATMENT OF INFECTION” (Biocomposites Limited, priority 2017, published 2018).
Read-outs that look alike come from different tables or passages of the source.

Assays:
Staphylococcus aureus = settings: breakpoint, EUCAST clinical breakpoints v7.0 (Jan 2017)
[1] = background statement, no test described
Pseudomonas aeruginosa = settings: breakpoint
[2] = American Society for Microbiology Kirby-Bauer disk diffusion susceptibility test protocol
[3] = EUCAST clinical breakpoints v7.0 (Jan 2017)

## NCC[C@H](O)C(=O)N[C@@H]1C[C@H](N)[C@@H](O[C@H]2O[C@H](CN)[C@@H](O)[C@H](O)[C@H]2O)[C@H](O)[C@H]1O[C@H]1O[C@H](CO)[C@@H](O)[C@H](N)[C@H]1O [Amikacin]
Staphylococcus aureus
  ZOI against Staphylococcus aureus, Resistant: <16 mm
  ZOI against Staphylococcus aureus, Susceptible: ≥18 mm

## C/C=C/C=C/C(=O)O [Sorbic acid]
[1]
  pH: 4.76

## CN(C)c1cc(NC(=O)CNC(C)(C)C)c(O)c2c1C[C@H]1C[C@H]3[C@H](N(C)C)C(O)=C(C(N)=O)C(=O)[C@@]3(O)C(O)=C1C2=O [Tigecycline]
Staphylococcus aureus
  ZOI against Staphylococcus aureus, Resistant: <18 mm
  ZOI against Staphylococcus aureus, Susceptible: ≥18 mm

## NC[C@H]1O[C@H](O[C@H]2[C@H](O)[C@@H](O[C@H]3O[C@H](CO)[C@@H](O)[C@H](N)[C@H]3O)[C@H](N)C[C@@H]2N)[C@H](N)C[C@@H]1O [Tobramycin]
Pseudomonas aeruginosa; [2]
  ZOI against Pseudomonas aeruginosa, Resistant: ≤12 mm
  ZOI against Pseudomonas aeruginosa, Susceptible: ≥15 mm
Pseudomonas aeruginosa; [3]
  ZOI against Pseudomonas aeruginosa, Resistant: <16 mm
  ZOI against Pseudomonas aeruginosa, Susceptible: ≥16 mm
Staphylococcus aureus
  ZOI against Staphylococcus aureus, Resistant: <18 mm
  ZOI against Staphylococcus aureus, Susceptible: ≥18 mm

## Gentamicin
Pseudomonas aeruginosa; [2]
  ZOI against Pseudomonas aeruginosa, Resistant: ≤12 mm
  ZOI against Pseudomonas aeruginosa, Susceptible: ≥15 mm
Pseudomonas aeruginosa; [3]
  ZOI against Pseudomonas aeruginosa, Resistant: <15 mm
  ZOI against Pseudomonas aeruginosa, Susceptible: ≥15 mm
Staphylococcus aureus
  ZOI against Staphylococcus aureus, Resistant: <18 mm
  ZOI against Staphylococcus aureus, Susceptible: ≥18 mm
